Assay results from patent US10844049B2, “GLP-1R agonists and uses thereof” (QILU REGOR THERAPEUTICS INC., priority 2018, dated 2020).

Key:
GLP1R = GLP1R (Homo sapiens, UniProt P43220); assay: β-Arrestin-mediated GLP1R internalization assay (PathHunter engineered U2OS cells); type: cell-based; parameters: host or cells: PathHunter engineered U2OS cells; settings: averaged Bmax, percentage of control GLP-1 (7-37), highest concentration tested
Text: A similar assay can also be used to assess the extent of signal attenuation due to GLP-1R internalization (the β-Arrestin Internalization Assay). In this assay, activated GLP1R Internalization cells were engineered to co-express an untagged GLP1R, Enzyme Acceptor (EA) tagged β-Arrestin, and a ProLink™ (PK) tag localized to the endosomes. Activation of the GLP1R induces β-Arrestin recruitment, which leads to internalization of the Receptor/Arrestin-EA complex in PK-tagged endosomes. This forces complementation of the two β-galactosidase enzyme fragments (EA and PK) to form a functional enzyme that hydrolyzes substrate to generate a chemiluminescent signal. These cells have been modified to prevent long term propagation and expansion using a proprietary compound that has no apparent effect on assay performance.
Specifically, PathHunter engineered U2OS cells from the assay kit (Cat #93-0724E3CP0L) were plated at a density of 2000 cells/20 μL/well in a 384-well white/clear bottom plates (Greiner Cat #781098). Frozen cells were quickly thawed and 10 mL of cell plating medium (provided by the kit) was added to thawed cells. Cells were stored in a 37° C. incubator and kept for approximately 48 hours until ready for the assay.
Reference and test compounds were dissolved in 100% DMSO. 5× concentration of an agonist was prepared in serum free DMEM (Thermo Cat #11965). 5 μL of this solution was added to 20 μL cell medium in assay plate for a final top concentration of 10 μM. Plates were incubated at 37° C. for 180 min.
Following 180 min incubation, detection reagents were made up by combining 1 part Galacton Star Substrate with 5 parts Emerald II™ Solution, and 19 parts of PathHunter Cell Assay Buffer, respectively. 12.5 μL detection reagent was added to each well. The plates were then incubated at room temperature for 60 min. Plates were then read on Envision for 0.1 sec/well.
EC50 determinations were made from agonist dose-response curves analyzed with a curve fitting program using a 4-parameter logistic dose response equation.

[1] = Monkey oral pharmacokinetic (PK) study, non-naïve Cynomolgus male monkeys; type: in vivo
Method: Appropriate volumes of vehicles (e.g., 2% Tween 80 (v:v) and 0.5% MC (w:v) in saline or 0.5% MC (w:v) in water were then added into the mortar containing the ground compounds, and the mixture was then grinded with a pestle until a homogeneous paste was formed. Additional appropriate volumes of vehicles were added into the mortar containing each compound, and the mixture was grinded further with the pestle until a homogeneous suspension was obtained.
The rest of the vehicle was added to make up the final dosing volume of about 1 mg/mL or 2 mg/mL (i.e., final dosing volume of about 5 mL/kg), and the homogenous suspension was continuously stirred prior to and during the dosing.
Non-naïve Cynomolgus male monkeys (n=3/test article; sourced from Hainan Jingang Biotech Co., Ltd., Nayang Xmtan, Fucheng Town, Qiongshan District, Haikou City, Hainan Province, China); or non-naïve aged, obese, and diabetic male Macaca fascicularis monkeys (n=3/test article, Source: Kunming Biomed International Colony) were used in pre-clinical in vivo studies. All non-naïve Cynomolgus male monkeys were approximately 3 to 5 years old, weighed about 2.5-5 kg, and were within ±20% of the average body weight. All non-naïve aged, obese, and diabetic male Macaca fascicularis monkeys were approximately 12 to 20 years old, weighed about >8-12 kg.
All animals were fasted overnight before dosing, and the food were supplied approximately 4 hours post dose (with free access to water all the time).
Animals were restrained at designated time points for blood sampling. Approximately 500 μL of blood samples was taken via cephalic or saphenous vein into EDTA-K2 tubes. Blood samples were put on wet ice before centrifugation.
For oral administration (PO) of either Dose 1 or Dose 2: blood samples were collected at pre-dose, and at 15 min, 30 min, 1 hr, 2 hr, 4 hr, (6 hr for compounds 19 and 28 with cynomolgus monkeys only), 8 hr, 12 hr, and 24 hr post dose (i.e., 9 or 10 total time points for each compound at each dose).
The blood samples were centrifuged at approximately 2,000-4,000 rpm for about 10-15 minutes at 2-8′C, and each resulting plasma portion was then transferred into an individual tube.
LC-MS/MS methods were developed, and bioanalysis for the test articles in monkey plasma was performed according to the developed LC-MS/MS methods.
Undiluted plasma samples: An aliquot of 20-50 μL plasma sample was mixed with 200 μL of ACN or MeOH containing one of the internal standards (IS, e.g., Diclofenac or Terfenadine). The mixture was then vortexed for about 1-5 min, and centrifuged at about 4,000-5,800 rpm for about 10-15 min. An aliquot of 1 μL supernatant was used for LC-MS/MS analysis.
Pharmacokinetics parameters, including area under the curve (AUC0-t), maximum plasma concentration (Cmax), time to reach maximum plasma concentration (Tmax), oral bioavailability (F %), etc., were calculated using Phoenix software (Version 6.4) and non-compartment model.

[2] = male, cynomolgus monkey, plasma, oral, Dose 2

Chain of GLP1R (P43220 24-463): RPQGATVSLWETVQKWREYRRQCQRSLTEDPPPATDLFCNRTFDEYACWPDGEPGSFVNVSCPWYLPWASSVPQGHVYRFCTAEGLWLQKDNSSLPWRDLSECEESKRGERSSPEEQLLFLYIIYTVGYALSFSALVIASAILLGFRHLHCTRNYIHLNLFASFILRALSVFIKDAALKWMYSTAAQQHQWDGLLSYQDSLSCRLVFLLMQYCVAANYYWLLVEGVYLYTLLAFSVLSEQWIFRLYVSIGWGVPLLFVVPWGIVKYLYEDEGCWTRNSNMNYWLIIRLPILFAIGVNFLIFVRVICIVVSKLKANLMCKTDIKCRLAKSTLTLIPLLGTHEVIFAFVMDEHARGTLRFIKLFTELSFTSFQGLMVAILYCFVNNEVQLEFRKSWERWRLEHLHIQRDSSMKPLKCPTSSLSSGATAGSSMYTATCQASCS

Structure (SMILES) | Bmax (POC) (GLP1R) | also measured
N#Cc1ccc(COc2cccc(C3=CCN(Cc4nc5ccc(C(=O)O)nc5n4C[C@@H]4CCO4)CC3)n2)c(F)c1 [Compound 225, (S)-2-((6-((4-cyano-2-fluorobenzyl)oxy)-3′,6′-dihydro-[2,4′-bipyridin]-1′(2′H)-yl)methyl)-3-(oxetan-2-ylmethyl)-3H-imidazo[4,5-b]pyridine-5-carboxylic add] | 24.0 ± 6.70 | plasma concentration-time profile ([1]; PO, over about 24 hours after oral dosing): sustained at a more constant level; Tmax [1, 2]: 4 h; bioavailability [1, 2]: 9.93%; AUC0-24 h ([1]; oral, Dose 2): 1500 Arbitrary units; Cmax ([1]; oral, Dose 2): 184 Arbitrary unit
O=C(O)c1ccc2nc(CN3CC=C(c4cncc(OCc5ccc(Cl)cc5F)n4)CC3)n(C[C@@H]3CCO3)c2c1 [Compound 34, (S)-2-((4-(6-(4-chloro-2-fluorobenzyloxy)pyrazin-2-yl)-5,6-dihydropyridin-1(2H)-yl)methyl)-1-(oxetan-2-ylmethyl)-1 h-benzo[d]imidazole-6-carboxylic acid] | 8.88 ± 3.19 | –
O=C(O)c1ccc2nc(CN3CC=C(c4cccc(OCc5ccc(-n6ccnc6)cc5)n4)CC3)n(C[C@@H]3CCO3)c2n1 [Compound 245, (S)-2-((4-(6-(4-(1H-imidazol-1-yl)benzyloxy)pyridin-2-yl)-5,6-dihydropyridin-1(2H)-yl)methyl)-3-(oxetan-2-ylmethyl)-3H-imidazo[4,5-b]pyridine-5-carboxylic add] | 27.7 | –
O=C(O)c1ccc2nc(CN3CC=C(c4cccc(OCc5ccc(Cl)cc5F)c4)CC3)n(C[C@@H]3CCO3)c2c1F [Compound 237, (S)-2-((4-(3-((4-chloro-2-fluorobenzyl)oxy)phenyl)-3,6-dihydropyridin-1(2H)-yl)methyl)-7-fluoro-1-(oxetan-2-ylmethyl)-1H-benzo[d]imidazole-6-carboxylic acid] | 17.7 ± 1.20 | –
O=C(O)c1ccc2nc(CN3CC=C(c4cccc(OCc5ccc(Cl)cc5F)c4)CC3)n(C[C@@H]3CCO3)c2n1 [Compound 224, (S)-2-((4-(3-((4-chloro-2-fluorobenzyl)oxy)phenyl)-3,6-dihydropyridin-1(2H)-yl)methyl)-3-(oxetan-2-ylmethyl)-3H-imidazo[4,5-b]pyridine-5-carboxylic acid] | 22.5 ± 1.41 | –
O=C(O)c1ccc2nc(CN3CC=C(c4cccc(OCc5ccc(-c6cccnc6)cc5)n4)CC3)n(C[C@@H]3CCO3)c2c1 [Compound 242, (S)-1-(oxetan-2-ylmethyl)-2-((6-((4-(pyridin-3-yl)benzyl)oxy)-3′,6′-dihydro-[2,4′-bipyridin]-1′(2′H)-yl)methyl)-1H-benzo[d]imidazole-6-carboxylic add] | 15.4 | –
O=C(O)c1ccc2nc(CN3CCC(c4cncc(OCc5ccc(Cl)cc5F)n4)CC3)n(C[C@@H]3CCO3)c2c1 [Compound 21, (S)-2-((4-(6-(4-chloro-2-fluorobenzyloxy)pyrazin-2-yl)piperidin-1-yl)methyl)-1-(oxetan-2-ylmethyl)-1 h-benzo[d]imidazole-6-carboxylic acid] | 6.64 ± 1.55 | –
O=C(O)c1ccc2nc(CN3CC=C(c4ccc(F)c(OCc5ccc(Cl)cc5F)c4)CC3)n(C[C@@H]3CCO3)c2c1F [Compound 238, (S)-2-((4-(3-((4-chloro-2-fluorobenzyl)oxy)-4-fluorophenyl)-3,6-dihydropyridin-1(2H)-yl)methyl)-7-fluoro-1-(oxetan-2-ylmethyl)-1H-benzo[d]imidazole-6-carboxylic acid] | 52.8 ± 1.14 | –
O=C(O)c1ccc2nc(CN3CC=C(c4cccc(OCc5ccc(Cl)cc5F)n4)CC3)n(C[C@@H]3CCO3)c2c1 [Compound 221, (S)-2-((6-((4-chloro-2-fluorobenzyl)oxy)-3′,6′-dihydro-[2,4′-bipyridin]-1′(2′H)-yl)methyl)-1-(oxetan-2-ylmethyl)-1H-benzo[d]imidazole-6-carboxylic acid] | 30.0 ± 6.40 | –
N#Cc1ccc(COc2cncc(C3=CCN(Cc4nc5ccc(C(=O)O)cc5n4C[C@@H]4CCO4)CC3)n2)c(F)c1 [Compound 23, (S)-2-((4-(6-(4-cyano-2-fluorobenzyloxy)pyrazin-2-yl)-5,6-dihydropyridin-1(2H)-yl)methyl)-1-(oxetan-2-ylmethyl)-1 h-benzo[d]imidazole-6-carboxylic acid] | 8.92 ± 3.70 | –
N#Cc1ccc(COc2cncc(C3CCN(Cc4nc5ccc(C(=O)O)cc5n4C[C@@H]4CCO4)CC3)n2)c(F)c1 [Compound 22, (S)-2-((4-(6-(4-cyano-2-fluorobenzyloxy)pyrazin-2-yl)piperidin-1-yl)methyl)-1-(oxetan-2-ylmethyl)-1 h-benzo[d]imidazole-6-carboxylic acid] | 7.40 ± 6.97 | –
O=C(O)c1ccc2nc(CN3CC=C(c4ccnc(OCc5ccc(Cl)cc5F)n4)CC3)n(C[C@@H]3CCO3)c2c1 [Compound 35, (S)-2-((4-(2-((4-chloro-2-fluorobenzyl)oxy)pyrimidin-4-yl)-3,6-dihydropyridin-1(2H)-yl)methyl)-1-(oxetan-2-ylmethyl)-1H-benzo[d]imidazole-6-carboxylic add] | 14.3 ± 9.21 | –
O=C(O)c1ccc2nc(CN3CC=C(c4ccc(F)c(OCc5ccc(Cl)cc5F)c4)CC3)n(C[C@@H]3CCO3)c2n1 [Compound 236, (S)-2-((4-(3-((4-chloro-2-fluorobenzyl)oxy)-4-fluorophenyl)-5,6-dihydropyridin-1(2H)-yl)methyl)-3-(oxetan-2-ylmethyl)-3H-imidazo[4,5-b]pyridine-5-carboxylic acid] | 30.0 | –
O=C(O)c1ccc2nc(CN3CCC(c4cccc(OCc5ccc(Cl)cc5F)c4)CC3)n(C[C@@H]3CCO3)c2c1 [Compound 239, (S)-2-((4-(3-((4-chloro-2-fluorobenzyl)oxy)phenyl)piperidin-1-yl)methyl)-1-(oxetan-2-ylmethyl)-1H-benzo[d]imidazole-6-carboxylic acid] | 14.1 ± 1.57 | –
N#Cc1ccc(COc2nc(C3=CCN(Cc4nc5ccc(C(=O)O)cc5n4C[C@@H]4CCO4)CC3)ccc2F)c(F)c1 [Compound 222, (S)-2-((6-((4-cyano-2-fluorobenzyl)oxy)-5-fluoro-3′,6′-dihydro-[2,4′-bipyridin]-1′(2′H)-yl)methyl)-1-(oxetan-2-ylmethyl)-1H-benzo[d]imidazole-6-carboxylic acid] | 31.4 ± 2.62 | –
O=C(O)c1ccc2nc(CN3CCC(c4ccnc(OCc5ccc(Cl)cc5F)n4)CC3)n(C[C@@H]3CCO3)c2c1 [Compound 18, (S)-2-((4-(2-((4-chloro-2-fluorobenzyl)oxy)pyrimidin-4-yl)piperidin-1-yl)methyl)-1-(oxetan-2-ylmethyl)-1H-benzo[d]imidazole-6-carboxylic acid] | 21.3 ± 3.47 | –
